The record followed here is patent publication US20240228504A1, “SUBSTITUTED TRICYCLIC AMIDES, ANALOGUES THEREOF, AND METHODS USING SAME” (Arbutus Biopharma Corporation, priority 2020, published 2024).

SMILES strings stand for the structures.

One may read the EC50 as the concentration giving half of the maximal effect.

For the first assay, the system named is HBV rcDNA in HepDE19 cells. Kind of assay: HepDE19 assay with bDNA quantitation of HBV rcDNA. The class given is cell-based, hepatitis B virus. The conditions noted are these: HepDE19 assay, inhibition of rcDNA formation, bDNA quantitation; read-out: DE-19bDNA EC50.
As to `CN(C(=O)c1cc2cc(F)c(F)cc2[nH]1)C1COCc2nc(NCCO)c3cc(F)c(F)cc3c21` (single isomer, unassigned) [Compound 336, N-(8,9-Difluoro-6-((2-hydroxyethyl)amino)-1,4-dihydro-2H-pyrano[3,4-c]isoquinolin-1-yl)-5,6-difluoro-N-methyl-1H-indole-2-carboxamide], the EC50 came out at 10 nM.

With `CN(C(=O)c1cc2cc(F)c(F)cc2[nH]1)C1COCc2nc(NCCN)c3cc(F)c(F)cc3c21` (single isomer, unassigned) [Compound 351, N-(6-((2-Aminoethyl)amino)-8,9-difluoro-1,4-dihydro-2H-pyrano[3,4-c]isoquinolin-1-yl)-5,6-difluoro-N-methyl-1H-indole-2-carboxamide], the EC50 was determined as 30 nM.

Take `CN(C(=O)c1cc2cc(F)c(F)cc2[nH]1)C1COCc2nc(NCCN)c3cc(F)c(F)cc3c21` (single isomer, unassigned) [Compound 352, N-(6-((2-Aminoethyl)amino)-8,9-difluoro-1,4-dihydro-2H-pyrano[3,4-c]isoquinolin-1-yl)-5,6-difluoro-N-methyl-1H-indole-2-carboxamide]: the EC50 was found to be 590 nM.

As for `CC(O)c1cc(F)cc2[nH]c(C(=O)N(C)[C@@H]3COCc4[nH]c(=O)c5cc(F)c(F)cc5c43)cc12` (single isomer, unassigned) [Compound 353], the EC50 was 60 nM.

As for `CC(O)c1cc(F)cc2[nH]c(C(=O)N(C)[C@@H]3COCc4[nH]c(=O)c5cc(F)c(F)cc5c43)cc12` (single isomer, unassigned) [Compound 354], the EC50 was 20 nM.

In the case of `CN(C(=O)c1cc2sccc2[nH]1)C1COCc2[nH]c(=O)c3cc(F)ccc3c21` (single isomer, unassigned) [Compound 380, N-(8-Fluoro-6-oxo-1,4,5,6-tetrahydro-2H-pyrano[3,4-c]isoquinolin-1-yl)-N-methyl-4H-thieno[3,2-b]pyrrole-5-carboxamide], the 50% effective concentration (EC50) turned out to be 880 nM.

As to `CN(C(=O)c1cc2sccc2[nH]1)C1COCc2[nH]c(=O)c3cc(F)ccc3c21` (single isomer, unassigned) [Compound 381, N-(8-Fluoro-6-oxo-1,4,5,6-tetrahydro-2H-pyrano[3,4-c]isoquinolin-1-yl)-N-methyl-4H-thieno[3,2-b]pyrrole-5-carboxamide], the EC50 amounted to 40 nM.

Regarding `CN(C(=O)c1cc2c(C#N)cc(F)cc2[nH]1)C1COCc2[nH]c(=O)c3cc(F)ccc3c21` (single isomer, unassigned) [Compound 382, 4-Cyano-6-fluoro-N-(8-fluoro-6-oxo-1,4,5,6-tetrahydro-2H-pyrano[3,4-c]isoquinolin-1-yl)-N-methyl-1H-indole-2-carboxamide], the EC50 was determined as 980 nM.

As for `CN(C(=O)c1cc2c(C#N)cc(F)cc2[nH]1)C1COCc2[nH]c(=O)c3cc(F)ccc3c21` (single isomer, unassigned) [Compound 383, 4-Cyano-6-fluoro-N-(8-fluoro-6-oxo-1,4,5,6-tetrahydro-2H-pyrano[3,4-c]isoquinolin-1-yl)-N-methyl-1H-indole-2-carboxamide], the EC50 came out at 40 nM.

Turning to `CN(C(=O)c1cc2ccc(C(F)F)cn2c1)C1CNCc2[nH]c(=O)c3cc(F)c(F)cc3c21` (single isomer, unassigned) [Compound 387, N-(8,9-Difluoro-6-oxo-1,2,3,4,5,6-hexahydrobenzo[c][1,7]naphthyridin-1-yl)-6-(difluoromethyl)-N-methylindolizine-2-carboxamide], the EC50 worked out at 11000 nM.

For the molecule `CN(C(=O)c1cc2ccc(C(F)F)cn2c1)C1CNCc2[nH]c(=O)c3cc(F)c(F)cc3c21` (single isomer, unassigned) [Compound 388, N-(8,9-Difluoro-6-oxo-1,2,3,4,5,6-hexahydrobenzo[c][1,7]naphthyridin-1-yl)-6-(difluoromethyl)-N-methylindolizine-2-carboxamide], the EC50 was determined as 110 nM.

Take `CN(C(=O)c1ccc2cccn2c1)C1COCc2[nH]c(=O)c3cc(F)ccc3c21` (single isomer, unassigned) [Compound 389, N-(8-Fluoro-6-oxo-1,4,5,6-tetrahydro-2H-pyrano[3,4-c]isoquinolin-1-yl)-N-methylindolizine-6-carboxamide]: the EC50 came to 17000 nM.

As for `CN(C(=O)c1ccc2cccn2c1)C1COCc2[nH]c(=O)c3cc(F)ccc3c21` (single isomer, unassigned) [Compound 390, N-(8-Fluoro-6-oxo-1,4,5,6-tetrahydro-2H-pyrano[3,4-c]isoquinolin-1-yl)-N-methylindolizine-6-carboxamide], the EC50 was 70 nM.

Turning to `CN(C(=O)c1ccc2cccn2c1)C1CNCc2[nH]c(=O)c3cc(F)c(F)cc3c21` (single isomer, unassigned) [Compound 391, N-(8,9-difluoro-6-oxo-1,2,3,4,5,6-hexahydrobenzo[c][1,7]naphthyridin-1-yl)-N-methylindolizine-6-carboxamide], the 50% effective concentration (EC50) is 22000 nM.

In the case of `CN(C(=O)c1ccc2cccn2c1)C1CNCc2[nH]c(=O)c3cc(F)c(F)cc3c21` (single isomer, unassigned) [Compound 392, N-(8,9-difluoro-6-oxo-1,2,3,4,5,6-hexahydrobenzo[c][1,7]naphthyridin-1-yl)-N-methylindolizine-6-carboxamide], the EC50 turned out to be 90 nM.

As to `CCc1cc(F)cc2[nH]c(C(=O)N(C)C3COCc4[nH]c(=O)c5cc(F)ccc5c43)cc12` (single isomer, unassigned) [Compound 393, 4-Ethyl-6-fluoro-N-(8-fluoro-6-oxo-1,4,5,6-tetrahydro-2H-pyrano[3,4-c]isoquinolin-1-yl)-N-methyl-1H-indole-2-carboxamide], the EC50 was determined as 1200 nM.

Still in this assay, the particulars now being: Hepatitis B virus, HepDE19, HepDE19 assay, inhibition of rcDNA formation, bDNA quantitation; read-out: DE-19bDNA EC50.
On to `CN(C(=O)c1cccc(Oc2cccc(F)c2)c1)C1CNCc2[nH]c(=O)c3cc(F)c(F)cc3c21` (single isomer, unassigned) [Compound 339, N-(8,9-Difluoro-6-oxo-1,2,3,4,5,6-hexahydrobenzo[c][1,7]naphthyridin-1-yl)-3-(3-fluorophenoxy)-N-methylbenzamide], for which the EC50 is 25000 nM.

For the molecule `CN(C(=O)c1cnc(C(F)(F)F)c(Cl)c1)C1COCc2[nH]c(=O)c3cc(F)ccc3c21` (single isomer, unassigned) [Compound 378, 5-Chloro-N-(8-fluoro-6-oxo-1,4,5,6-tetrahydro-2H-pyrano[3,4-c]isoquinolin-1-yl)-N-methyl-6-(trifluoromethyl)nicotinamide], the EC50 amounted to 18300 nM.

For `CN(C(=O)c1cnc(C(F)(F)F)c(Cl)c1)[C@@H]1COCc2[nH]c(=O)c3cc(F)ccc3c21` (single isomer, unassigned) [Compound 379, 5-Chloro-N-(8-fluoro-6-oxo-1,4,5,6-tetrahydro-2H-pyrano[3,4-c]isoquinolin-1-yl)-N-methyl-6-(trifluoromethyl)nicotinamide], the EC50 amounted to 170 nM.

Consider `CN(C(=O)c1cc2cc(C(F)F)ccn2c1)C1CNCc2[nH]c(=O)c3cc(F)c(F)cc3c21` (single isomer, unassigned) [Compound 386, N-(8,9-Difluoro-6-oxo-1,2,3,4,5,6-hexahydrobenzo[c][1,7]naphthyridin-1-yl)-7-(difluoromethyl)-N-methylindolizine-2-carboxamide], for which the EC50 is 1900 nM.
